Patent US10221427B2 (priority 2014, dated 2019)

Assays:
ENST1 (TaENST1-4A) = tested on: ENST1 (TaENST1-4A); design: species or system wheat cv. CM82036; details: in vivo
Arabidopsis root hair = experiment: Root hair assay (apoptosis-like programmed cell death); assay type: cell-based, Arabidopsis thaliana; details: 65 μM SA, one day post treatment
Experimental: The root hair assay was conducted as previously described (Kacprzyk et al. 2014). Briefly, five days old seedling were treated with 65 μM SA solution and incubated at 22° C. in constant light until scoring. The Apostosis-Like Program Cell Death (AL-PCD) was assessed by scoring root hair viability with a fluorescein diacetate (FDA) staining and examination under the microscope of the emission of the fluorescein when excited at the wavelength 485 nm. Root hairs negative for FDA staining were examined further and scored as programmed cell death (PCD) when having a condensed cell content and protoplast retracted away from the cell wall (as opposed to necrotic cells which have no retracted cytoplasm and therefore no distinguishable morphology compared to living cells under the light microscope). The percentage for each category was calculated as a percentage of the total number of root hair scored (about 100) averaged over at least three replicates.

Row | Structure (SMILES) | ENST1 expression in tissues treated with the toxin (ENST1 (TaENST1-4A)) | ENST1 induction by DON (ENST1 (TaENST1-4A)) [fold] | programmed cell death (PCD) in root hairs after SA treatment (Arabidopsis root hair)
1 | CC1=C[C@H]2O[C@@H]3[C@H](O)C[C@](C)([C@@]2(CO)[C@H](O)C1=O)[C@]31CO1 [DON, deoxynivalenol] | high expression | 43 | –
2 | O=C(O)c1ccccc1O [SA, salicylic acid] | – | – | significant inductions of PCD
